Data: the NIST ThermoML archive (doi:10.1016/j.tca.2011.09.016)
Numbers after ± are expanded uncertainties.

Details: Crystal 2; AC calorimetry

- Triple point temperature: 177.5 ± 0.1 K
Structure (SMILES): O=P([O-])(O)P(=O)([O-])O.[NH4+].[NH4+] [diammonium hypodiphosphate]
